Source: patent publication US20020173452A1, “Cytostatic-glycoconjugates having specifically cleavable linking units” (priority 2000, published 2002)
*1 amine or outer side, *2 acyl side, *3 side chain or, on linkers, in order; H or OH if unused. Where a SMILES comes first, the peptide text is derived from it. [ ]: non-standard residue; d: D form. The star is where a group is joined. ξ: configuration not given here. Camptothecin(20R,20-O) = CC[C@]1(O*)C(=O)OCc2c1cc1n(c2=O)Cc2cc3ccccc3nc2-1; X5 = C[C@H]1O[C@@H](Oc2ccc(NC(=S)*)cc2)[C@@H](O)[C@@H](OCC(N)=O)[C@H]1O; X6 = CO[C@@H]1[C@H](O)[C@H](Oc2ccc(NC(=S)*)cc2)O[C@H](C)[C@@H]1O; X1 = CO[C@H]1[C@@H](O)[C@@H](C)OC(Oc2ccc(NC(=S)*)cc2)[C@H]1O; X2 = CC[C@@]1(O*)C(=O)OCc2c1cc1n(c2=O)Cc2cc3ccccc3nc2-1; X3 = CO[C@H]1[C@@H](O)[C@@H](C)OC(Oc2ccc(N*)cc2)[C@H]1O; CO = O=C([*:1])[*:2]; ξV = CC(C)C(N)C(=O)O; ξP = O=C(O)C1CCCN1

Assays:
[1] = tested on: hemopoietic stem cells (bone marrow cells); experiment: cells; assay type: cell-based, mice; details: murine bone marrow cells, recombinant murine GM-CSF, 7 days
Method: C. CSF-Induced Proliferation of Hemopoietic Stem Cells
Bone marrow cells are flushed out of the femur of mice. 105 cells are incubated in McCoy 5A medium (0.3% agar) together with recombinant murine GM-CSF (Genzyme; parent cell colony formation) and the substances (10^−4 to 100 μg/ml) at 37° C. and 7% CO2. 7 days later, the colonies ([…]) and clusters (17-50 cells) are counted.

[2] = tested on: SW 480 human large intestine cell line; experiment: Growth inhibition test (MTT) for cytotoxic properties on tumour cell lines; assay type: cell-based; details: SW480 cells, growth checked after day 6, read-out: IC50 of the cytotoxic action on tumour cell lines, SW480
Method: (§1) A: Growth Inhibition Test for the Determination of the Cytotoxic Properties on Various Tumour Cell Lines
(§2) The human large intestine cell lines SW 480 and HT29 (ATCC No. CCL 228 and HTB38 and the mouse melanoma cell line B16F10 (CRL 6475) were grown to confluence in Roux dishes in RPMI 1640 medium with addition of 10% FCS. They were then trypsinized and taken up in RPMI plus 10% FCS to a cell count of 50,000 cells or, for B16F10, 20,000 cells per ml. 100 μl of cell suspension/well were added to a 96 microwell plate and incubated at 37° C. for 1 day in a CO2 incubator. A further 100 μl of RPMI medium and 1 μl of DMSO were then added with the test substances. The growth was checked after day 6. For this, 25 μl of MTT solution (3-(4,5-dimethylthiazol-2-yl)-2,5-diphenyltetrazolium bromide) was added to each well at a starting concentration of 5 mg/ml of H2O. The plate was incubated at 37° C. for 5 hours in a CO2 incubator. The medium was then aspirated and 100 μl of 1-propanol/well were added. After shaking with 100 μl of H2O for 30 min, the extinction was measured at 595 nm using a Multiplate Reader (BIO-RAD 3550-UV).
(§3) The cytostatic action is indicated in Table 1 as an IC50 value, in each case for the individual cell lines.

[3] = tested on: HT29 human large intestine cell line; experiment: as above; assay type: cell-based; details: HT29 cells, growth checked after day 6, read-out: IC50 of the cytotoxic action on tumour cell lines, HT29
Method: as §1, §2, §3

[4] = tested on: subcutaneously growing melanoma xenograft model (MEXF 989); experiment: In-vivo inhibition of tumour growth using a nude mouse model; design: species or system athymic nude mice (NMRI nu/nu strain); details: for inhibition of the tumor growth (in words): subcutaneously growing melanoma xenograft MEXF 989, nude mice; for optimal T/C in % / lethality: MEXF 989 xenograft, nude mice, i.v. or i.p., day 1-3 and day 15-17; for lethality: dead/5 mice
From the text: B. In-Vivo Inhibition or Tumour Growth Using a Nude Mouse Model
In all in-vivo experiments for investigating the inhibition of tumour growth, athymic nude mice (NMRI nu/nu strain) were used. The tumour was developed by serial passage in nude mice. The human origin of the tumour was confirmed by isoenzymatic and immunohistochemical methods.
The tumour was implanted subcutaneously in both flanks of nu/nu nude mice 6 to 8 weeks old. The treatment was started, depending on the doubling time, as soon as the tumours had reached a diameter of 5-7 mm. The mice were assigned to the treatment group or the control group (5 mice per group having 8-10 assessable tumours) by randomization. The individual tumours of the control group all grew progressively.
The size of the tumours was measured in two dimensions by means of a slide gauge. The tumour volume, which correlated well with the cell count, was then used for all assessments. The volume was calculated according to the formula “length×breadth×breadth/2” ([a×b^2]/2, a and b represent two diameters arranged at right angles).
The values of the relative tumour volume (RTV) were calculated for each individual tumour by dividing the tumour size on day×with the tumour size on day 0 (at the time of randomization). The average values of the RTV were then used for the further assessment.
The inhibition of the increase of the tumour volume (tumour volume of the test group/control group, T/C, in percent) was the final measured value.
The compounds can be administered with a daily or an intermittent therapy schedule through a couple of days either by intraperitoneal, intravenious, oral or subcutaneous route.
The compounds are dissolved in water or in PEG400/water 2:1 and are administered intravenously or intraperitoneally from day 1-3 and day 15-17.

[5] = tested on: B16F10 mouse melanoma cell line; experiment: Growth inhibition test (MTT) for cytotoxic properties on tumour cell lines; assay type: cell-based; details: B16F10 cells, growth checked after day 6, read-out: IC50 of the cytotoxic action on tumour cell lines, B16F10
Method: as §1, §2, §3

MMP-2 = target: T1, MMP-2 (Homo sapiens, UniProt P08253); experiment: Cleavage of conjugates by MMP-2 in buffer; assay type: biochemical; details: after 6 h incubation with MMP-2 in buffer pH 7.5, HPLC peak areas
T1 construct: purchased Calbiochem
T1 sequence (P08253 110-660): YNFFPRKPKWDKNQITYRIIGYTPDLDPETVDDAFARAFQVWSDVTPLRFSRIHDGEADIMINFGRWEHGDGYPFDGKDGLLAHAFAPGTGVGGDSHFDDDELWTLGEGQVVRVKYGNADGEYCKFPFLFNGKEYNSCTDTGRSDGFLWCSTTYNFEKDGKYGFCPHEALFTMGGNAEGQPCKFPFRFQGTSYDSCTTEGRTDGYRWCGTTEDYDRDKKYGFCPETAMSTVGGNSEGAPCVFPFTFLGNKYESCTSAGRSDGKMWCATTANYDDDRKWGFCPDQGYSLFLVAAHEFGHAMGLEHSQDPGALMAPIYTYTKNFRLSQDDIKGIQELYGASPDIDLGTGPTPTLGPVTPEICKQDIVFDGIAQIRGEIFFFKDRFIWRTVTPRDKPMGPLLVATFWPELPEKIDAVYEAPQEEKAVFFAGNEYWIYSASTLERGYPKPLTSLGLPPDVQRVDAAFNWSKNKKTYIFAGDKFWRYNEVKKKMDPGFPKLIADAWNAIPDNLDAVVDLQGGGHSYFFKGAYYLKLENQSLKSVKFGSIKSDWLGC
Method: D. Cleavage of Conjugates by MMP-2 in Buffer
2.5 μl MMP-2 (Calbiochem) with a specific activity of 60μU/μl are incubated with 10 nM of the conjugates exemplified in the example series 1-25 in 1 ml of a medium consisting of 50 mM Tris-HCl pH 7.5, 0.2 M NaCl, 10 mM CaCl2*2H2O and 0,05% Brij 35. The enzyme mediated cleavage of the conjugates is detected by HPLC analysis using an RP18 (5 μM) column with 70% HClO4 /water (0.4% v/v) as eluent A and acetonitrile as eluent B (UV detection at […]). The efficiency of the cleavage is assessed by comparing the peak areas of the intact conjugate (starting material) and the cleavage product (tripeptide conjugate of camptothecin) after 6 h and 24 h incubation (cf, Table 4).

SMILES	IC50 ([1]; Mus musculus, Bone marrow cell, 168 h, read-out: IC50 of inhibition of colony counts of hemopoietic stem cells) [mg/L]	IC50 [2] [µM]	IC50 [3] [µM]	inhibition of the tumor growth (in words) [4]	IC50 [5] [µM]	IC50 of inhibition of colony counts of hemopoietic stem cells [1] [mg/L]	MMP-2 mediated cleavage, peak area product/educt × 100 (MMP-2)	optimal T/C in % ([4]; 8 mg/kg/day) [%]	lethality ([4]; 8 mg/kg/day)	optimal T/C in % ([4]; 6 mg/kg/day) [%]	lethality ([4]; 6 mg/kg/day)
CC[C@@]1(O)C(=O)OCc2c1cc1n(c2=O)Cc2cc3ccccc3nc2-1 [Camptothecin, 20(S)-Camptothecin, reference compound]	0.00025	–	–	–	–	–	–	–	–	–	–
CC[C@@]1(OC(=O)[C@H](NC(=O)[C@@H](Cc2c[nH]cn2)NC(=O)CNC(=O)[C@H](CC(C)C)NC(=O)[C@H]2CCCN2C(=S)Nc2ccc(OC3O[C@H](C)[C@H](O)[C@H](OC)[C@@H]3O)cc2)C(C)C)C(=O)OCc2c1cc1n(c2=O)Cc2cc3ccccc3nc2-1.Cl (some centres unmarked) [Example 2]	–	0.15	0.07	effected inhibitions of the tumor growth	–	–	–	–	–	–	–
CC[C@@]1(OC(=O)[C@H](NC(=O)[C@@H](Cc2c[nH]cn2)NC(=O)[C@@H](CC(C)C)NC(=O)CNC(=O)[C@H](CC(C)C)NC(=O)[C@H]2CCCN2C(=S)Nc2ccc(OC3O[C@H](C)[C@H](O)[C@H](OC)[C@@H]3O)cc2)C(C)C)C(=O)OCc2c1cc1n(c2=O)Cc2cc3ccccc3nc2-1.Cl (stereo partly drawn) [Example 3] (X1-[dP]LG[dL][dH][dV]-X2)	–	0.1	0.05	–	0.15	0.04	609	19.1	1/5	–	–
CC[C@@]1(OC(=O)[C@H](NC(=O)[C@@H](Cc2c[nH]cn2)NC(=O)[C@@H](CC(C)C)NC(=O)CNC(=O)[C@H](CC(C)C)NC(=O)[C@H]2CCCN2C(=O)Nc2ccc(OC3O[C@H](C)[C@H](O)[C@H](OC)[C@@H]3O)cc2)C(C)C)C(=O)OCc2c1cc1n(c2=O)Cc2cc3ccccc3nc2-1.Cl (stereo partly drawn) [Example 4] ({X3-CO}-[dP]LG[dL][dH][dV]-X2)	–	0.05	0.04	–	0.15	–	700	–	–	–	–
CC[C@@]1(OC(=O)[C@H](NC(=O)[C@@H](CC(N)=O)NC(=O)[C@@H](CC(C)C)NC(=O)CNC(=O)[C@H](CC(C)C)NC(=O)[C@H]2CCCN2C(=S)Nc2ccc(OC3O[C@H](C)[C@H](O)[C@H](OC)[C@@H]3O)cc2)C(C)C)C(=O)OCc2c1cc1n(c2=O)Cc2cc3ccccc3nc2-1 (stereo partly drawn) [Example 5] (X1-[dP]LG[dL][dN][dV]-X2)	–	0.08	0.06	effected inhibitions of the tumor growth	0.3	–	166	–	–	19.1	1/5
CC[C@@]1(OC(=O)[C@H](NC(=O)[C@@H](CC(N)=O)NC(=O)[C@@H](CC(C)C)NC(=O)CNC(=O)[C@H](CC(C)C)NC(=O)[C@H]2CCCN2C(=O)Nc2ccc(OC3O[C@H](C)[C@H](O)[C@H](OC)[C@@H]3O)cc2)C(C)C)C(=O)OCc2c1cc1n(c2=O)Cc2cc3ccccc3nc2-1 (stereo partly drawn) [Example 6] ({X3-CO}-[dP]LG[dL][dN][dV]-X2)	–	0.06	0.05	–	0.3	–	80	–	–	–	–
CC[C@@]1(OC(=O)[C@H](NC(=O)[C@@H](CC(=O)O)NC(=O)[C@@H](CC(C)C)NC(=O)CNC(=O)[C@H](CC(C)C)NC(=O)[C@H]2CCCN2C(=S)Nc2ccc(OC3O[C@H](C)[C@H](O)[C@H](OC)[C@@H]3O)cc2)C(C)C)C(=O)OCc2c1cc1n(c2=O)Cc2cc3ccccc3nc2-1 (stereo partly drawn) [Example 7] (X1-[dP]LG[dL][dD][dV]-X2)	–	0.2	0.1	–	0.6	–	9	–	–	–	–
CC[C@@]1(OC(=O)[C@H](NC(=O)[C@@H](Cc2c[nH]c3ccccc23)NC(=O)[C@@H](CC(C)C)NC(=O)CNC(=O)[C@H](CC(C)C)NC(=O)[C@H]2CCCN2C(=S)Nc2ccc(OC3O[C@H](C)[C@H](O)[C@H](OC)[C@@H]3O)cc2)C(C)C)C(=O)OCc2c1cc1n(c2=O)Cc2cc3ccccc3nc2-1 (stereo partly drawn) [Example 9] (X1-[dP]LG[dL][dW][dV]-X2)	–	0.4	0.3	–	1	–	64	–	–	–	–
CC[C@@]1(OC(=O)[C@H](NC(=O)[C@@H](Cc2c[nH]cn2)NC(=O)[C@@H](CC(C)C)NC(=O)CNC(=O)[C@H](CC(C)C)NC(=O)[C@H]2CCCN2C(=S)Nc2ccc(OC3O[C@H](C)[C@H](O)[C@H](OC)[C@@H]3O)cc2)C(C)C)C(=O)OCc2c1cc1n(c2=O)Cc2cc3ccccc3nc2-1.Cl (stereo partly drawn) [Example 12] (X1-[dP]LG[dL][dH][dV]-X2)	–	0.15	0.1	–	0.3	0.03	–	–	–	–	–
CC[C@]1(OC(=O)C(NC(=O)[C@@H](CC(N)=O)NC(=O)[C@@H](CC(C)C)NC(=O)CNC(=O)[C@H](CC(C)C)NC(=O)C2CCCN2C(=S)Nc2ccc(O[C@@H]3O[C@H](C)[C@H](O)[C@H](OCC(N)=O)[C@@H]3O)cc2)C(C)C)C(=O)OCc2c1cc1n(c2=O)Cc2cc3ccccc3nc2-1 (stereo partly drawn) [Example 26] (X5-[ξP]LG[dL][dN][ξV]-{Camptothecin(20R,20-O)})	–	0.15	0.09	–	0.45	–	–	–	–	–	–
CC[C@]1(OC(=O)[C@H](NC(=O)[C@@H](CC(N)=O)NC(=O)[C@@H](CC(C)C)NC(=O)CNC(=O)[C@H](CC(C)C)NC(=O)C2CCCN2C(=O)CNC(=S)Nc2ccc(O[C@@H]3O[C@H](C)[C@H](O)[C@H](OC)[C@@H]3O)cc2)C(C)C)C(=O)OCc2c1cc1n(c2=O)Cc2cc3ccccc3nc2-1 (stereo partly drawn) [Example 27] (X6-G[ξP]LG[dL][dN][dV]-{Camptothecin(20R,20-O)})	–	0.025	0.015	–	0.05	–	–	–	–	–	–
